Reference: ChEMBL document CHEMBL3045718, “Substituted 2-[2-(pyridin-3-yl) phenyl] acetamides and ureas: design, synthesis, and anticonvulsant screening in mice” (Med Chem Res, 2012)
Calls of active or inactive are those of the source. The calls are words filed in the database; no cut-off is given here.

Experiments:
Mus musculus [1] = test: Anticonvulsant activity in Mus musculus Swiss albino (mouse) assessed as protection against subcutaneous pentylenetetrazol-induced clonic spasms at 300 mg/kg, ip after 0.5 hr post compound treatment; assay type: functional, organism-based; set-up: dose 300 mg/kg
Mus musculus [2] = test: Neurotoxicity in Mus musculus Swiss albino (mouse) assessed as motor impairment at 600 mg/kg, ip measured for 1 min by rotarod test; assay type: toxicity, organism-based; set-up: dose 600 mg/kg, route intraperitoneal; details: in vivo
Mus musculus [3] = test: Neurotoxicity in Mus musculus Swiss albino (mouse) assessed as motor impairment at 100 mg/kg, ip measured for 1 min by rotarod test; assay type: toxicity, organism-based; set-up: dose 100 mg/kg, route intraperitoneal; details: in vivo
Mus musculus [4] = test: Anticonvulsant activity in Mus musculus Swiss albino (mouse) assessed as protection against maximal electroshock-induced seizures at 300 mg/kg, ip measured after 0.5 hr post compound treatment; assay type: functional, organism-based; set-up: dose 300 mg/kg
Mus musculus [5] = test: Anticonvulsant activity in Mus musculus Swiss albino (mouse) assessed as protection against subcutaneous pentylenetetrazol-induced clonic spasms at 300 mg/kg, ip after 4 hr post compound treatment; assay type: functional, organism-based; set-up: dose 300 mg/kg
Mus musculus [6] = test: Anticonvulsant activity in Mus musculus Swiss albino (mouse) assessed as protection against maximal electroshock-induced seizures at 300 mg/kg, ip measured after 4 hr post compound treatment; assay type: functional, organism-based; set-up: dose 300 mg/kg
Mus musculus [7] = test: Anticonvulsant activity in ip dosed Mus musculus Swiss albino (mouse) assessed as protection against maximal electroshock-induced seizures measured; assay type: functional
[8] = Protective index, ratio of TD50 for neurotoxicity in Mus musculus Swiss albino (mouse) to ED50 for anticonvulsant activity in Mus musculus Swiss albino (mouse); assay type: toxicity, organism-based; details: in vivo, read-out: Ratio TD50/ED50
Mus musculus [9] = test: Anticonvulsant activity in Mus musculus Swiss albino (mouse) assessed as protection against maximal electroshock-induced seizures at 30 mg/kg, ip measured after 0.5 hr post compound treatment; assay type: functional, organism-based; set-up: dose 30 mg/kg
Mus musculus [10] = test: Anticonvulsant activity in Mus musculus Swiss albino (mouse) assessed as protection against maximal electroshock-induced seizures at 30 mg/kg, ip measured after 4 hr post compound treatment; assay type: functional, organism-based; set-up: dose 30 mg/kg
Mus musculus [11] = test: Anticonvulsant activity in ip dosed Mus musculus Swiss albino (mouse) assessed as protection against maximal electroshock-induced seizures measured after 0.5 hr post compound treatment; assay type: functional
[12] = Protective index, ratio of TD50 for neurotoxicity in Mus musculus Swiss albino (mouse) to ED50 for anticonvulsant activity in Mus musculus Swiss albino (mouse) measured 0.5 hr post compound treatment; assay type: toxicity, organism-based; details: in vivo, read-out: Ratio TD50/ED50
[13] = Neurotoxicity in ip dosed Mus musculus Swiss albino (mouse) assessed as motor impairment measured after 0.5 hr post compound treatment for 1 min by rotarod test; assay type: toxicity, organism-based; details: in vivo
Mus musculus [14] = test: Anticonvulsant activity in Mus musculus Swiss albino (mouse) assessed as protection against subcutaneous pentylenetetrazol-induced clonic spasms at 30 mg/kg, ip after 4 hr post compound treatment; assay type: functional, organism-based; set-up: dose 30 mg/kg
Mus musculus [15] = test: Anticonvulsant activity in Mus musculus Swiss albino (mouse) assessed as protection against subcutaneous pentylenetetrazol-induced clonic spasms at 30 mg/kg, ip after 0.5 hr post compound treatment; assay type: functional, organism-based; set-up: dose 30 mg/kg

NC(=S)NNC(=O)Cc1ccccc1-c1cccnc1
Activity (Mus musculus [1]): inactive
Activity (Mus musculus [2]): Toxic
Activity (Mus musculus [3]): Non-toxic
Activity (Mus musculus [4]): inactive
Activity (Mus musculus [5]): inactive
Activity (Mus musculus [6]): inactive

CC(C)(C)NC(=O)NCc1ccccc1-c1cccnc1
Activity (Mus musculus [1]): inactive
Activity (Mus musculus [2]): Toxic
Activity (Mus musculus [3]): Non-toxic
Activity (Mus musculus [4]): inactive
Activity (Mus musculus [5]): inactive
Activity (Mus musculus [6]): inactive

O=C1CCCN1C(=O)Cc1ccccc1Nc1ccccc1
ED50 (Mus musculus [7]): 8 mg/kg
Activity (Mus musculus [2]): Toxic
selectivity ratio [8]: 87.5
Activity (Mus musculus [3]): Non-toxic

NC(=O)N1c2ccccc2C=Cc2ccccc21 [CARBAMAZEPINE]
Activity (Mus musculus [2]): Toxic
Activity (Mus musculus [9]): Active
Activity (Mus musculus [10]): Active
Activity (Mus musculus [3]): Non-toxic

NC(=O)Cc1ccccc1-c1cccnc1
Activity (Mus musculus [2]): Toxic
Activity (Mus musculus [9]): Active
ED50 (Mus musculus [11]): 8.28 mg/kg
Activity (Mus musculus [10]): Active
selectivity ratio at 0.5 h [12]: 26
Activity (Mus musculus [3]): Non-toxic
TD50 at 0.5 hr [13]: 215 mg/kg

O=C1NC(=O)C(c2ccccc2)(c2ccccc2)N1 [PHENYTOIN]
Activity (Mus musculus [2]): Toxic
Activity (Mus musculus [9]): Active
Activity (Mus musculus [10]): Active
Activity (Mus musculus [3]): Non-toxic

NC(=O)NNC(=O)Cc1ccccc1-c1cccnc1
Activity (Mus musculus [1]): inactive
Activity (Mus musculus [2]): Toxic
Activity (Mus musculus [3]): Non-toxic
Activity (Mus musculus [4]): inactive
Activity (Mus musculus [5]): inactive
Activity (Mus musculus [6]): inactive

CN1C(=O)CN=C(c2ccccc2)c2cc(Cl)ccc21 [DIAZEPAM]
Activity (Mus musculus [2]): Toxic
Activity (Mus musculus [3]): Non-toxic
Activity (Mus musculus [14]): Active
Activity (Mus musculus [15]): Active

CCC1(c2ccccc2)C(=O)NC(=O)NC1=O [PHENOBARBITAL]
Activity (Mus musculus [2]): Toxic
Activity (Mus musculus [3]): Non-toxic
Activity (Mus musculus [14]): Active
Activity (Mus musculus [15]): Active

O=C(NCc1ccccc1-c1cccnc1)NC1CCCCC1
Activity (Mus musculus [1]): inactive
Activity (Mus musculus [2]): Toxic
Activity (Mus musculus [3]): Non-toxic
Activity (Mus musculus [4]): inactive
Activity (Mus musculus [5]): inactive
Activity (Mus musculus [6]): inactive
